Data published in patent US20240190851A1, “FURAN FUSED RING-SUBSTITUTED GLUTARIMIDE COMPOUND” (MEDSHINE DISCOVERY INC., priority 2021, published 2024).
Counter-ions that a name gives are not always drawn.

Target: T1, AR F876L (Homo sapiens, UniProt P10275, F877L)
T1 construct: expressed in transfected cells; host or cells: 293T AR F876L
T1 sequence (P10275 1-920 F877L): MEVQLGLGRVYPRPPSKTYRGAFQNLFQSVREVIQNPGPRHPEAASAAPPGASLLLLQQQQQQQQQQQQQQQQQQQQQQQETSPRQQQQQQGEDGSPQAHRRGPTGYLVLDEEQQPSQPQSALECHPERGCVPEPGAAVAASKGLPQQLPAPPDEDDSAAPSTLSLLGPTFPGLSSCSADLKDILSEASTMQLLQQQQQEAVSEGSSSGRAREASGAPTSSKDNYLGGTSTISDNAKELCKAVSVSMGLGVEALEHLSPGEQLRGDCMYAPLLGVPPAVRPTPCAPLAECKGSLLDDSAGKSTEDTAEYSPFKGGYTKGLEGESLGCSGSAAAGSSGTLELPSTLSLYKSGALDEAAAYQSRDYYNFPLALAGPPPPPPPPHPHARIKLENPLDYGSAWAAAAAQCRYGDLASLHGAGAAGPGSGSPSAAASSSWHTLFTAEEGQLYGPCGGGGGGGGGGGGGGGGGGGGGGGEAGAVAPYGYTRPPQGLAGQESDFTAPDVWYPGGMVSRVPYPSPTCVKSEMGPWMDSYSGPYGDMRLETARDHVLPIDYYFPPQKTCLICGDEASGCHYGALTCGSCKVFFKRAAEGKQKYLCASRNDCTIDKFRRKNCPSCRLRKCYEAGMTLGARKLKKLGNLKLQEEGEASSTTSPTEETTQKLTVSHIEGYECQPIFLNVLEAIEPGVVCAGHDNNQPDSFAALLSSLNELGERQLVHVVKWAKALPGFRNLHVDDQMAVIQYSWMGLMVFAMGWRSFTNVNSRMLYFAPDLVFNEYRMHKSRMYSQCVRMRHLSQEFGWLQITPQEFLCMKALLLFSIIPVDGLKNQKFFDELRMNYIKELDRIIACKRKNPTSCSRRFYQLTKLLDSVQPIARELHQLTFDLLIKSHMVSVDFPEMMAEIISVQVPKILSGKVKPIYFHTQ
Assay: In cell western of AR protein in 293T AR F876L cells
Format: cell-based
Conditions: AR degradation, 48 hours
Experimental: Experimental purpose: In this experiment, the effects of compounds WX015, WX016, and WX017 on the expression level of AR protein with point mutation in cell line 293T AR F876L were detected by in cell western assay to evaluate the degradation effect of compounds on proteins with AR F876L point mutation.
The cell line was cultured in a 37° C., 5% CO2 incubator. Regular passage, and cells in logarithmic growth phase were taken for plating.
2. Cell Plating: • 1) Cells were stained with trypan blue and viable cells were counted. • 2) The cell concentration was adjusted to an appropriate concentration with a density of 20000/well. • 3) 90 μL of cell suspension per well was added to a 96-well culture plate, and cell-free culture medium was added to the blank control well. • 4) The culture plate was cultured overnight in a 37° C., 5% CO2 incubator with 100% relative humidity.
3. […]
Relative quantification of the density intensity of immunoblot chemiluminescence bands was performed using Image Studio Ver 5.2 software.

- DC50: 43 nM
- Dmax (HEK-293T): 85%
Compound: N#Cc1ccc(O[C@H]2CC[C@H](NC(=O)c3ccc(N4CCC(CN5CCN(c6cccc7c6ccc6occ(C8CCC(=O)NC8=O)c67)CC5)CC4)nn3)CC2)cc1Cl (some centres unmarked) [Hydrochloride of WX015]
